From publication PMC4917448 (Journal of biomolecular screening, 2016)
“Also recorded” adds a separate entry of the source.

Legend:
HDAC I/II [1] = test: HDAC-Glo I/II assay in HCT116 cells; type: cell-based, human; settings: for HDAC-Glo: Efficacy, HCT116 / Efficacy, HDAC-Glo I/II HCT116 assay: maximal response; for HDAC I/II inhibitory activity (in words): HCT116 and HEK293 cells, validation with epigenetics libraries; for HDAC activity inhibited, HDAC-Glo I/II: HCT116, qHTS primary screening of NPC library; for IC50, HDAC-Glo activity: HCT116, validation with epigenetics libraries, 0.7 nM-46 μM
HDAC I/II [2] = test: HDAC-Glo I/II assay in human neural stem cells; type: cell-based; settings: cherry-pick confirmation; for HDAC-Glo: Efficacy, hNSC: maximal response; for IC50: read-out: HDAC-Glo: IC50, hNSC, 11 concentrations, 1 hour; for inhibition of HDAC-Glo I/II luminescence signals: hNSCs, Figure 2
human neural stem cells = test: CellTiter-Glo cell viability assay in hNSC; type: cell-based; settings: cherry-pick confirmation, 1 hour
HCT116 cells = test: CellTiter-Glo cell viability assay in HCT116; type: cell-based, human; settings: cherry-pick confirmation, 1 hour
HDAC3 = HDAC3 (Homo sapiens, UniProt O15379); test: Fluorogenic isoform-specific HDAC assay, HDAC3; type: biochemical; settings: 20 μM
[3] = test system: class I and II HDAC enzymes; test: Panel of fluorogenic assays against ten class I and II HDAC isoforms; type: biochemical, human; settings: 20 μM; for inhibition of HDAC isoforms (in words): Figure 3
HDAC I/II [4] = test: HDAC-Glo I/II assay in HEK293 cells; type: cell-based, human; settings: HEK293, validation with epigenetics libraries, 0.7 nM-46 μM
[5] = read-out: HDAC-Glo: IC50, HCT116, cherry-pick confirmation, 11 concentrations, 1 hour
[6] = read-out: IC50, HDAC-Glo I/II HCT116 assay, powder confirmation

HDAC3, sequence (O15379 whole entry, canonical isoform): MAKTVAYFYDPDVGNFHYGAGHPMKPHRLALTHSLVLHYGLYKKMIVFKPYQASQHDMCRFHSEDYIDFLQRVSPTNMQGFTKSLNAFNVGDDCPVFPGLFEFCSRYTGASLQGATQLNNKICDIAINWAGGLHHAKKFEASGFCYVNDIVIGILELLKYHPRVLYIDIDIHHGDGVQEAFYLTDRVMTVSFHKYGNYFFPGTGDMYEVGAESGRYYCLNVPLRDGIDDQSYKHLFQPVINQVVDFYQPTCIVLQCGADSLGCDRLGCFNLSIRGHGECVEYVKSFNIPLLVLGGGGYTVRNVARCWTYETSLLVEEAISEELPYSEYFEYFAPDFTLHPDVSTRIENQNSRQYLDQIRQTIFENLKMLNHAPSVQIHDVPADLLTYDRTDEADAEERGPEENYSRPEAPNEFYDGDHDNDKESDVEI
HDAC3, sequence (Q9Y618 395-489 partner limits assumed): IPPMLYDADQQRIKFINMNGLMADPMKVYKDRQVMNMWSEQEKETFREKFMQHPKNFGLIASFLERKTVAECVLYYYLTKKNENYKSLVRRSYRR

| Compound | HDAC-Glo: Efficacy, HCT116 (HDAC I/II [1]; cherry-pick confirmation) | IC50 (HDAC I/II [1]; [5]) [nM] | HDAC-Glo: Efficacy, hNSC (HDAC I/II [2]) [%] | IC50 (HDAC I/II [2]) [nM] | Viability: IC50, hNSC (human neural stem cells) | Viability: IC50, HCT116 (HCT116 cells) | Efficacy, HDAC-Glo I/II HCT116 assay (HDAC I/II [1]; powder confirmation) | IC50 (HDAC I/II [1]; [6]) [nM] | other results |
| --- | --- | --- | --- | --- | --- | --- | --- | --- | --- |
| CC(C)[C@H](C(=O)Nc1ccc(C(=O)NO)cc1)c1ccccc1 [AR-42] | 113 ± 2% | 940 ± 110 | 115 ± 5 | 760 ± 170 | Inactive | Inactive |  |  |  |
| CC(C)c1ccc2oc3nc(N)c(C(=O)O)cc3c(=O)c2c1 [Amlexanox] | 110 ± 2% | 1090 ± 70 | 96 ± 7 | 1100 ± 140 | Inactive | Inactive | 98 ± 0% | 1650 ± 360 |  |
| CN(C)C(=O)COC(=O)Cc1ccc(OC(=O)c2ccc(NC(=N)N)cc2)cc1 [Camostat] | 109 ± 4% | 1940 ± 660 | 102 ± 3 | 950 ± 200 | Inactive | Inactive |  |  | inhibition of HDAC-Glo I/II luminescence signals (HDAC I/II [2]): completely inhibited |
| O=C(Oc1ccccc1)c1cccc(C(=O)Oc2ccccc2)c1 [Diphenyl isophthalate] | 112 ± 5% | 3870 ± 810 | 103 ± 3 | 2240 ± 150 | Inactive | Inactive | 97 ± 0% | 5280 ± 630 | inhibition of HDAC3 (in words) (HDAC3): selectively inhibited |
| Cc1nc(-c2ccc(OCC(C)C)c(C#N)c2)sc1C(=O)O [Febuxostat] | 127 ± 5% | 2380 ± 440 | 116 ± 3 | 2160 ± 600 | Inactive | Inactive | 96 ± 1% | 2430 ± 270 | inhibition of HDAC3 (in words) (HDAC3): selectively inhibited; also recorded: selective to HDAC3 |
| C[C@@H]1NC(=O)[C@H]2CCCN2C(=O)[C@H](CCCCCC(=O)[C@@H]2CO2)NC(=O)[C@@H](C)NC1=O [HC Toxin] |  |  |  |  |  |  |  |  | HDAC I/II inhibitory activity (in words) (HDAC I/II [1]): identified |
| CC(C)(C)OC(=O)Nc1ccc(-c2cc(C(=O)NCCCCCCC(=O)NO)no2)cc1 [ISOX] | 124 ± 5% | 2320 ± 650 | 118 ± 6 | 1960 ± 350 | Inactive | Inactive |  |  |  |
| O=C(/C=C/c1ccc(O)cc1)c1ccc(O)cc1O [Isoliquiritigenin] | 110 ± 3% | 1670 ± 190 | 117 ± 5 | 2020 ± 130 | Inactive | Inactive | 97 ± 0% | 2360 ± 110 | inhibition of HDAC isoforms (in words) [3]: weakly inhibited many class I and II HDAC enzymes |
| Cc1oncc1C(=O)Nc1ccc(C(F)(F)F)cc1 [Leflunomide] | 118 ± 11% | 9480 ± 1980 | 106 ± 2 | 5900 | Inactive | Inactive | 92 ± 0% | 5610 ± 120 | inhibition of HDAC3 (in words) (HDAC3): selectively inhibited |
| O=C(Nc1ccc([N+](=O)[O-])cc1Cl)c1cc(Cl)ccc1O [Niclosamide] | 112 ± 2% | 2380 ± 160 | 102 ± 4 | 1400 ± 240 | Inactive | Inactive | 98 ± 1% | 2080 ± 170 |  |
| CCCCc1nc2cc(/C=C/C(=O)NO)ccc2n1CCN(CC)CC [Pracinostat] | 114 ± 4% | 350 ± 60 | 112 ± 5 | 270 ± 60 | Inactive | Inactive |  |  |  |
| Nc1cc(F)ccc1NC(=O)/C=C/c1cnn(C/C=C/c2ccccc2)c1 [RGFP966] |  |  |  |  |  |  |  |  | HDAC I/II inhibitory activity (in words) (HDAC I/II [1]): identified |
| Oc1ccc(/C=C/c2cc(O)cc(O)c2)cc1 [Resveratrol] | 97 ± 13% | 11000 ± 1980 | 102 ± 4 | 7430 | Inactive | Inactive | 69 ± 2% | 18200 ± 2050 | HDAC I/II inhibitory activity (in words) (HDAC I/II [1]): identified; inhibition of HDAC-Glo I/II luminescence signals (HDAC I/II [2]): completely inhibited |
| O=C(CCCCCN1C(=O)c2cccc3cccc(c23)C1=O)NO [Scriptaid] | 123 ± 3% | 1870 ± 220 | 113 ± 6 | 1190 ± 250 | Inactive | Inactive | 93 ± 1% | 1760 ± 240 | inhibition against all class I and II HDAC enzymes [3]: over 80%; inhibition of HDAC isoforms (in words) [3]: inhibited activities of all isoforms |
| O=C(CCCCCCC(=O)Nc1ccccc1)NO [Vorinostat, suberoylanilide hydroxamic acid] | 0.77 ± 0.05 (119 ± 6) % |  | 101 ± 2 | 660 ± 80 | Inactive | Inactive | 0.45 ± 0.04 (99 ± 0) % |  |  |
| CCC[S+]([O-])c1ccc2[nH]c(NC(=O)OC)nc2c1 (stereo not shown) [albendazole oxide] |  |  |  |  |  |  |  |  | HDAC activity inhibited, HDAC-Glo I/II (HDAC I/II [1]): more than half |
| CCCSc1ccc2nc(NC(=O)OC)[nH]c2c1 [albendazole] |  |  |  |  |  |  |  |  | HDAC activity inhibited, HDAC-Glo I/II (HDAC I/II [1]): more than half |
| CCC(=O)CCCCC[C@@H]1NC(=O)[C@H]2CCCCN2C(=O)[C@H]([C@@H](C)CC)NC(=O)[C@H](Cc2cn(OC)c3ccccc23)NC1=O [apicidin] |  |  |  |  |  |  |  |  | HDAC I/II inhibitory activity (in words) (HDAC I/II [1]): identified |
| Nc1cc(F)ccc1NC(=O)c1ccc(CNC(=O)/C=C/c2cccnc2)cc1 [chidamide] |  |  |  |  |  |  |  |  | HDAC I/II inhibitory activity (in words) (HDAC I/II [1]): identified |
| Nc1ccccc1NC(=O)c1ccc(CNC(=O)OCc2cccnc2)cc1 [entinostat] |  |  |  |  |  |  |  |  | HDAC I/II inhibitory activity (in words) (HDAC I/II [1]): identified |
| CCCC(=O)[O-].[Na+] [sodium butyrate] |  |  |  |  |  |  |  |  | IC50, HDAC-Glo activity (HDAC I/II [1]): did not show concentration-dependent inhibition; IC50, HDAC-Glo activity (HDAC I/II [4]): did not show concentration-dependent inhibition |
| O=C(O)CCCc1ccccc1 [sodium phenylbutyrate] |  |  |  |  |  |  |  |  | IC50, HDAC-Glo activity (HDAC I/II [1]): did not show concentration-dependent inhibition; IC50, HDAC-Glo activity (HDAC I/II [4]): did not show concentration-dependent inhibition |
| c1ccc2[nH]c(-c3cscn3)nc2c1 [thiabendazole] |  |  |  |  |  |  |  |  | HDAC activity inhibited, HDAC-Glo I/II (HDAC I/II [1]): more than half |
| CCCC(CCC)C(=O)O [valproic acid] |  |  |  |  |  |  |  |  | IC50, HDAC-Glo activity (HDAC I/II [1]): did not show concentration-dependent inhibition; IC50, HDAC-Glo activity (HDAC I/II [4]): did not show concentration-dependent inhibition |
| selisistat [selisistat (EX-527)] |  |  |  |  |  |  |  |  | average IC50, HDAC-Glo I/II, assay selectivity (HDAC I/II [1]; HCT116, Figure 1C): inactive |
